The values that follow come from the Biogen ADME set (Fang et al. 2023).

The conditions of this series: for aqueous solubility: pH 6.8.

≈ marks a conversion by molar mass, not a printed value.

As a reminder, the aqueous solubility is the concentration that dissolves in the medium under given conditions. A lower aqueous solubility goes with little dissolved substance. With `c1cc(CN2CCC(c3ccn[nH]3)CC2)ccn1`, the MDR1-MDCK efflux ratio worked out at 1.05; the intrinsic clearance, human liver microsomes was 5.91 mL/min/kg; the intrinsic clearance, rat liver microsomes stood at 32.1 mL/min/kg; the aqueous solubility was found to be 28.2 µg/mL (≈ 116 µM).
As to `Cc1nc(C)c(C)c(NCc2cc(-c3ccc(F)cc3)no2)n1`, the MDR1-MDCK efflux ratio turned out to be 0.906; the intrinsic clearance, human liver microsomes worked out at 20.3 mL/min/kg; the intrinsic clearance, rat liver microsomes was determined as 242 mL/min/kg; the aqueous solubility came to 37.5 µg/mL (≈ 120 µM).
For `COc1cccc(CN2CCN(C(=O)Cc3ccc(C)cc3)[C@@H](C)C2)c1` the same measures were 0.739, 230 mL/min/kg, 988 mL/min/kg and 44 µg/mL (≈ 125 µM).
For `Cc1ccc(C(=O)Nc2ncccc2C)s1`, in that order: 0.664, 6.72 mL/min/kg, 34.6 mL/min/kg and 37.8 µg/mL (≈ 163 µM).
For `Cc1csc(NC(=O)c2ccc(-c3ccncc3)cc2)n1`, in that order: 0.179, 35.7 mL/min/kg, 305 mL/min/kg and 2.34 µg/mL (≈ 7.92 µM).
In turn, `CCNc1cc2c(nn1)CCN(C(=O)Cn1ccc3ccccc31)C2` returned an intrinsic clearance, human liver microsomes not above 4.74 mL/min/kg and an intrinsic clearance, rat liver microsomes of 93.1 mL/min/kg.
In the case of `COC(=O)[C@@H]1C[C@H](O)CN1CCc1ccccc1F`, the MDR1-MDCK efflux ratio was found to be 0.726; the intrinsic clearance, rat liver microsomes is 3370 mL/min/kg; the aqueous solubility was found to be 56.8 µg/mL (≈ 212 µM).
Consider `COCc1ncc(CN2CCC(Oc3ccccc3C)CC2)cn1`, for which the intrinsic clearance, human liver microsomes was 23.1 mL/min/kg and the intrinsic clearance, rat liver microsomes was 180 mL/min/kg.
As for `Nc1ncnc2c1ncn2[C@@H]1O[C@H](CO)[C@@H](O)[C@@H]1O`, the aqueous solubility was determined as 54.7 µg/mL (≈ 205 µM).
For `O=c1n(Cc2ccccn2)nc2n1-c1cc(Cl)ccc1C1=NCCN12`, the intrinsic clearance, human liver microsomes was not above 4.74 mL/min/kg and the intrinsic clearance, rat liver microsomes was 47.9 mL/min/kg.
For the compound `CCc1noc(C2CCC(NCC3CCC(F)(F)CC3)CC2)n1` (stereo not drawn), the MDR1-MDCK efflux ratio was determined as 2.98; the intrinsic clearance, human liver microsomes turned out to be 54.4 mL/min/kg; the intrinsic clearance, rat liver microsomes is 240 mL/min/kg; the aqueous solubility stood at 75.9 µg/mL (≈ 232 µM).
For `Cc1cc2cc(C(=O)N(C)CCC(=O)O)oc2cc1C`, in that order: 1.72, not above 4.74 mL/min/kg, not above 10.7 mL/min/kg and 47 µg/mL (≈ 171 µM).
In turn, `N#Cc1cnn(-c2ccc(F)cc2)c1N` gave an aqueous solubility of 29.2 µg/mL (≈ 144 µM).
`CC1CCN(C(=O)c2n[nH]c3ccccc23)CC1`: the MDR1-MDCK efflux ratio was determined as 0.561; the intrinsic clearance, human liver microsomes came to 21.4 mL/min/kg; the intrinsic clearance, rat liver microsomes came to 916 mL/min/kg; the aqueous solubility worked out at 26.4 µg/mL (≈ 109 µM).
For `COc1ccccc1CNc1n[nH]c2nc([C@H]3CCCN(CC(=O)N4CCCC4)C3)ccc12`, in that order: 43.9, 22.9 mL/min/kg, 422 mL/min/kg and 54.9 µg/mL (≈ 122 µM).
For `Clc1ccc2c(Oc3cccnc3)ncnc2c1`, in that order: 0.654, 16.7 mL/min/kg, 47 mL/min/kg and 39.7 µg/mL (≈ 154 µM).
In the case of `Cc1cc(C)c(S(=O)(=O)Nc2ccc3c(c2)OCO3)c(C)c1-n1cnnn1`, the MDR1-MDCK efflux ratio stood at 24.1 and the aqueous solubility stood at 17.8 µg/mL (≈ 46 µM).
In the case of `O=C(Nc1cnc2ccccc2n1)c1ccncc1`, the MDR1-MDCK efflux ratio was found to be 0.578; the intrinsic clearance, human liver microsomes was 6.67 mL/min/kg; the intrinsic clearance, rat liver microsomes is 127 mL/min/kg.
In the case of `COc1ccccc1-c1nnc([C@H]2CCN(Cc3ccccc3C)C2)o1`, the MDR1-MDCK efflux ratio worked out at 0.755; the intrinsic clearance, human liver microsomes stood at 158 mL/min/kg; the intrinsic clearance, rat liver microsomes stood at 3190 mL/min/kg; the aqueous solubility was determined as 37 µg/mL (≈ 106 µM).
With `N#Cc1ccccc1NC(=O)CCc1ccccc1`, the MDR1-MDCK efflux ratio amounted to 0.552; the intrinsic clearance, human liver microsomes came to 16 mL/min/kg; the intrinsic clearance, rat liver microsomes is 456 mL/min/kg.
Consider `N#Cc1c(N2CCCC2)oc2nc3ccccc3nc12`, for which the aqueous solubility came out at 0.3 µg/mL (≈ 1.14 µM).
For `Cc1ccc(C(=O)C(=O)Nc2c(C)nn(C)c2C)cc1`, the MDR1-MDCK efflux ratio turned out to be 0.615; the intrinsic clearance, human liver microsomes turned out to be 20 mL/min/kg; the intrinsic clearance, rat liver microsomes was 115 mL/min/kg; the aqueous solubility was 32.6 µg/mL (≈ 120 µM).
For `CNC(=O)N1CCc2nc3ccc(Cl)cn3c(=O)c2C1`, in that order: 6.16, not above 4.74 mL/min/kg, not above 10.7 mL/min/kg and 50.5 µg/mL (≈ 173 µM).
For `CC(C)c1nnc(NCc2ccn(C)c2)o1`, in that order: 0.768, not above 4.74 mL/min/kg, 63.1 mL/min/kg and 17.9 µg/mL (≈ 81.2 µM).
For `CCCC(=O)N1CCC(c2cccc(C)n2)CC1` the same measures were 0.574, not above 4.74 mL/min/kg, 443 mL/min/kg and 40.2 µg/mL (≈ 163 µM).
Take `CCN(CC)C(=O)N1CCC(C(=O)O)CC1`: the MDR1-MDCK efflux ratio worked out at 4.41; the intrinsic clearance, human liver microsomes was not above 4.74 mL/min/kg; the intrinsic clearance, rat liver microsomes is not above 10.7 mL/min/kg; the aqueous solubility came to 60.2 µg/mL (≈ 264 µM).
Consider `O=C(Cn1nc(Cc2ccccc2)c2ccccc2c1=O)NCCc1c[nH]cn1`, for which the MDR1-MDCK efflux ratio was determined as 34.6; the intrinsic clearance, human liver microsomes is 36.6 mL/min/kg; the intrinsic clearance, rat liver microsomes came to 597 mL/min/kg.
For the compound `CCOc1nc(-c2ccc(Cl)c(Cl)c2)n(-c2cccc(NC(=O)c3ccc(F)cc3)c2)n1`, the MDR1-MDCK efflux ratio was 2.67 and the aqueous solubility was determined as 0.25 µg/mL (≈ 0.53 µM).
Regarding `CCc1nnnn1Cc1noc2c1CCCC2`, the MDR1-MDCK efflux ratio amounted to 0.792; the intrinsic clearance, human liver microsomes is not above 4.74 mL/min/kg; the intrinsic clearance, rat liver microsomes was 60.7 mL/min/kg; the aqueous solubility worked out at 23.2 µg/mL (≈ 99.6 µM).
The compound `O=C(Nc1nnc[nH]1)c1ccc(C2SCCCS2)cc1` yielded an intrinsic clearance, human liver microsomes of 8.22 mL/min/kg and an intrinsic clearance, rat liver microsomes of 147 mL/min/kg.
In the case of `Cc1cccnc1NC(=O)CCn1cnc2ccccc21`, the MDR1-MDCK efflux ratio is 15.9; the intrinsic clearance, human liver microsomes is not above 4.74 mL/min/kg; the intrinsic clearance, rat liver microsomes is not above 10.7 mL/min/kg; the aqueous solubility turned out to be 48.1 µg/mL (≈ 172 µM).
For `CC(C)(C)c1ccc(CN2CCC(C(N)=O)CC2)cc1` the same measures were 0.975, not above 4.74 mL/min/kg, 144 mL/min/kg and 47.8 µg/mL (≈ 174 µM).
For `Cc1ccc(-c2cc(NC(=O)CN3CCOCC3)on2)cc1`, in that order: 0.561, not above 4.74 mL/min/kg, 71 mL/min/kg and 52.1 µg/mL (≈ 173 µM).
As to `CC(C)Cc1sc(N)nc1-c1ccc(P(=O)(O)O)o1`, the MDR1-MDCK efflux ratio was found to be 0.425; the intrinsic clearance, human liver microsomes is not above 4.74 mL/min/kg; the intrinsic clearance, rat liver microsomes is not above 10.7 mL/min/kg; the aqueous solubility turned out to be 69.3 µg/mL (≈ 229 µM).
For `CCOc1ccc(-c2ccccc2NC(=O)COC)cc1` the same measures were 0.401, 398 mL/min/kg, 4200 mL/min/kg and 37.3 µg/mL (≈ 131 µM).
In the case of `COc1nc2c(cc1CNC(=O)N1CC[C@@H](O)C1)C(=O)N(C1CCCC1)C2`, the MDR1-MDCK efflux ratio was 32; the intrinsic clearance, human liver microsomes is not above 4.74 mL/min/kg; the intrinsic clearance, rat liver microsomes was not above 10.7 mL/min/kg.
Consider `O=C(NC[C@H]1CCN(c2ccccc2)C1)N1CCc2sccc2C1`, for which the MDR1-MDCK efflux ratio was 0.834; the intrinsic clearance, human liver microsomes is 226 mL/min/kg; the intrinsic clearance, rat liver microsomes was found to be 2510 mL/min/kg; the aqueous solubility was found to be 16.9 µg/mL (≈ 49.3 µM).
Turning to `O=C(CC[C@@H]1CCCN2CCCC[C@H]12)NCc1ncc(Cl)cn1`, the MDR1-MDCK efflux ratio was 33.8; the intrinsic clearance, human liver microsomes was not above 4.74 mL/min/kg; the intrinsic clearance, rat liver microsomes was found to be 37.6 mL/min/kg.
With `Nc1ccc(CC(=O)Nc2ccccc2F)cc1`, the MDR1-MDCK efflux ratio worked out at 0.66; the intrinsic clearance, human liver microsomes is not above 4.74 mL/min/kg; the intrinsic clearance, rat liver microsomes is not above 10.7 mL/min/kg; the aqueous solubility was found to be 54 µg/mL (≈ 221 µM).
Regarding `Cc1ncc(CN(C)c2nnc(C)c(C)c2C#N)s1`, the aqueous solubility stood at 28.6 µg/mL (≈ 105 µM).
With `Cn1cc(C(C)(C)NC(=O)C#Cc2ccc3c(c2)OCO3)cn1`, the MDR1-MDCK efflux ratio worked out at 3.89; the intrinsic clearance, human liver microsomes is not above 4.74 mL/min/kg; the intrinsic clearance, rat liver microsomes came to 51.1 mL/min/kg.
For `C[C@]12C=CC(=O)C=C1CC[C@@H]1[C@@H]2[C@@H](O)C[C@@]2(C)[C@H]1CC[C@]2(O)C(=O)CO`, in that order: 5.44, 25.4 mL/min/kg and 62.9 mL/min/kg.
With `O=C(Nc1ccc2c(c1)OCCCO2)c1cnn(Cc2ccccc2)c1`, the MDR1-MDCK efflux ratio worked out at 0.64; the intrinsic clearance, human liver microsomes came out at 6.05 mL/min/kg; the intrinsic clearance, rat liver microsomes turned out to be 492 mL/min/kg; the aqueous solubility is 16.5 µg/mL (≈ 47.2 µM).
Turning to `CCOc1ccnc(NCCCc2nc3cc(F)ccc3[nH]2)n1`, the MDR1-MDCK efflux ratio was 3.15; the intrinsic clearance, human liver microsomes was found to be 237 mL/min/kg; the intrinsic clearance, rat liver microsomes was found to be 3280 mL/min/kg.
For `COc1cc2c(cc1OC)[C@@H]1CC(=O)[C@@H](CC(C)C)CN1CC2` the same measures were 0.721, 57.8 mL/min/kg and 330 mL/min/kg.
Regarding `CC(C)(C(=O)NCc1ccccn1)c1ccccc1`, the MDR1-MDCK efflux ratio worked out at 0.736; the intrinsic clearance, human liver microsomes was not above 4.74 mL/min/kg; the intrinsic clearance, rat liver microsomes turned out to be 138 mL/min/kg; the aqueous solubility turned out to be 77.6 µg/mL (≈ 305 µM).
With `Cn1cc(CN2CCc3nc4ccccc4c(=O)n3CC2)cn1`, the MDR1-MDCK efflux ratio came out at 2.78; the intrinsic clearance, human liver microsomes is not above 4.74 mL/min/kg; the intrinsic clearance, rat liver microsomes stood at 19.9 mL/min/kg.
